Data from US11976083B2, “Inhibitors of peptidylarginine deiminases” (Gilead Sciences, Inc., priority 2020, dated 2024).

The molecules below were run against T1, human PAD4 (Homo sapiens, UniProt Q9UM07) (assay: In vitro PAD4 BAEE biochemical assay). Conditions: BAEE substrate 3 mM, 5 nM PAD4, 2 mM calcium chloride; geometric mean of multiple experiments.
T1 construct: human PAD4 (NM_012387), A2-P663, was PCR amplified; His-SUMO (N, cleaved yes); made in house; host or cells: E. coli BL21(DE3)
Method in brief: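 Ammonia produced by BAEE deimination (3 mM substrate, 2 h, 25 °C) was read as fluorescent isoindole after o-phthalaldehyde/DTT derivatization, ex 405 nm/em 535 nm. Human PAD4 at 5 nM final, 2 mM calcium, pH 7.6 MOPS; compound preincubated 30 min. IC50s, normalized to BB-Cl-Amidine and DMSO controls, were geometric-mean averaged.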

T1 sequence (Q9UM07 2-663): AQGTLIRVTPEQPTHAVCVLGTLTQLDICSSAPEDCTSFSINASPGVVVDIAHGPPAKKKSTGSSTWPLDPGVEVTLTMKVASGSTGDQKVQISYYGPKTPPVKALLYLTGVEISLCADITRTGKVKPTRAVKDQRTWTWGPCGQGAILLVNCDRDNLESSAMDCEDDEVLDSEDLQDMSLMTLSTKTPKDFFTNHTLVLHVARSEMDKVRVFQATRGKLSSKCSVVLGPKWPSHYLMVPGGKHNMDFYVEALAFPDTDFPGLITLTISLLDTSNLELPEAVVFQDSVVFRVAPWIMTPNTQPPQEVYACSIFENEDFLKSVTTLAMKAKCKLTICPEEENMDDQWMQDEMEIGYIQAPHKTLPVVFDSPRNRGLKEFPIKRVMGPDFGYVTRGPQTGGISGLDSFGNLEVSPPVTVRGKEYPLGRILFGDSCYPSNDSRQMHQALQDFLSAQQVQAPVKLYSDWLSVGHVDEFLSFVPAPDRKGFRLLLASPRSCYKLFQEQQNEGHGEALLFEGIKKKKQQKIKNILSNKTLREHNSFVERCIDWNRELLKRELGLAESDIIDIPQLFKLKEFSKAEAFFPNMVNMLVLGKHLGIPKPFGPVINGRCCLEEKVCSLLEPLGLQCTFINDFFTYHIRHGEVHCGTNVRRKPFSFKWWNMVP

| Compound | IC50 |
| --- | --- |
| COc1cc(C(=O)N2CC[C@@H](OC)[C@@H](N)C2)cc2nc(-c3cc4ccc5nc4n3CC(F)(F)CCCOC3(CC3)C(=O)N[C@@H]5C)n(C)c12 [Example 589, (11~{R})-17-[5-[(3~{S},4~ {R})-3-amino-4-methoxy-piperidine-1-carbonyl]-7-methoxy-1-methyl-benzimidazol-2-yl]-3,3-difluoro-11-methyl-spiro[7-oxa-1,10,19-triazatricyclo[10.5.2.0^ {15,18}]nonadeca-12(19), 13,15(18),16-tetraene-8,1′-cyclopropane]-9-one] | 145 nM |
| COc1cc(C(=O)N[C@H]2CNCC[C@@H]2F)cc2nc(-c3cc4ccc5nc4n3Cc3ccccc3CCCCC(=O)N[C@@H]5C)n(C)c12 [Example 590, ~{N}-[(3~{S},4~{S})-4-fluoro-3-piperidyl]-7-methoxy-1-methyl-2-[(15~{R})-15-methyl-13-oxo-1,14,23-triazatetracyclo[14.5.2.0^ {3,8}.0^{19,22}]tricosa-3(8),4,6,16,18,20,22-heptaen-21-yl] benzimidazole-5-carboxamide] | 683 nM |
| C[C@H]1NC(=O)C(C)(C)CCCCCCn2c(-c3nc4cc(C(=O)N[C@H]5CNCC[C@@H]5F)c(F)cc4n3C)cc3ccc1nc32 [Example 591, 6-fluoro-~{N}-[(3~{S},4~ {S})-4-fluoro-3-piperidyl]-1-methyl-2-[(11~ {R})-8,8,11-trimethyl-9-oxo-1,10,19-triazatricyclo [10.5.2.0^{15,18}]nonadeca-12,14,16,18-tetraen-17-yl]benzimidazole-5-carboxamide] | 81 nM |
| COc1cc2c(cc1C(=O)N[C@H]1CNCC[C@@H]1F)nc(-c1cc3ccc4nc3n1CCCCCCC(C)(C)C(=O)N[C@@H]4C)n2C [Example 592, ~{N}-[(3~{S},4~{S})-4-fluoro-3-piperidyl]-6-methoxy-1-methyl-2-[(11~{R})-8,8,11-trimethyl-9-oxo-1,10,19-triazatricyclo[10.5.2.0^ {15,18}]nonadeca-12,14,16,18-tetraen-17-yl]benzimidazole-5-carboxamide] | 175 nM |
| C[C@H]1NC(=O)c2ccccc2CCCCCn2c(-c3nc4cc(C(=O)N[C@H]5CNCC[C@@H]5F)c(F)cc4n3C)cc3ccc1nc32 [Example 593, 6-fluoro-~{N}-[(3~{S},4~ {S})-4-fluoro-3-piperidyl]-1-methyl-2-[(2~{R})-2-methyl-4-oxo-3,16,22-triazatetracyclo[14.5.2.0^ {5,10}.0^{19,23}]tricosa-1(21),5(10),6,8,17, 19,22-heptaen-17-yl] benzimidazole-5-carboxamide] | 44 nM |
| COc1cc(C(=O)N[C@H]2CNCC[C@@H]2F)cc2nc(-c3cc4ccc5nc4n3CC(F)(F)CCCCC(C)(C)C(=O)N[C@@H]5C)n(C)c12 [Example 594, 2-[(11~{R})-3,3-difluoro-8,8,11-trimethyl-9-oxo-1,10,19-triazatricyclo [10.5.2.0^{15,18}]nonadeca-12,14,16,18-tetraen-17-yl]-~ {N}-[(3~{S},4~{S})-4-fluoro-3-piperidyl]-7-methoxy-1-methyl-benzimidazole-5-carboxamide] | 112 nM |
| C[C@H]1NC(=O)[C@@H]2C[C@H]2CCCC(F)(F)Cn2c(-c3nc4cc(C(=O)N[C@H]5CNCC[C@@H]5F)c(F)cc4n3C)cc3ccc1nc32 [Example 595, 2-[(2~{R},5~{R},7~ {R})-11,11-difluoro-2-methyl-4-oxo-3,13,19-triazatetracyclo[11.5.2.0^ {5,7}.0^{16,20}]icosa-1(19),14,16(20),17-tetraen-14-yl]-6-fluoro-~ {N}-[(3~{S},4~{S})-4-fluoro-3-piperidyl]-1-methyl-benzimidazole-5-carboxamide] | 37 nM |
| C[C@H]1NC(=O)C(C)(C)CCCCCCn2c(-c3nc4cc(C(=O)N[C@H]5CNCC[C@@H]5F)c(C#N)cc4n3C)cc3ccc1nc32 [Example 596, 6-cyano-~{N}-[(3~{S},4~ {S})-4-fluoro-3-piperidyl]-1-methyl-2-[(11~{R})-8,8,11-trimethyl-9-oxo-1,10,19-triazatricyclo[10.5.2.0^ {15,18}]nonadeca-12,14,16,18-tetraen-17-yl] benzimidazole-5-carboxamide] | 3580 nM |
| C[C@H]1NC(=O)c2ccccc2CCCC(F)(F)Cn2c(-c3nc4cc(C(=O)N[C@H]5CNCC[C@@H]5F)c(F)cc4n3C)cc3ccc1nc32 [Example 597, 2-[(2~{R})-14,14-difluoro-2-methyl-4-oxo-3,16,22-triazatetracyclo[14.5.2.0^ {5,10}.0^{19,23}]tricosa-1(21),5(10),6,8,17,19,22-heptaen-17-yl]-6-fluoro-~ {N}-[(3~{S},4~{S})-4-fluoro-3-piperidyl]-1-methyl-benzimidazole-5-carboxamide] | 42 nM |
| COc1cc(C(=O)N2[C@H]3CC[C@@H]2[C@H](N)C3)cc2nc(-c3cc4ccc5nc4n3CCCCCc3nccnc3C(=O)N[C@@H]5C)n(C)c12 [Example 598, (2~{R})-17-[5-[(1~{R}, 2~{R},4~{S})-2-amino-7-azabicyclo[2.2.1]heptane-7-carbonyl]-7-methoxy-1-methyl-benzimidazol-2-yl]-2-methyl-3,6,9,16,22-pentazatetracyclo[14.5.2.0^ {5,10}.0^{19,23}] tricosa-1(21),5(10),6,8,17, 19,22-heptaen-4-one] | 42 nM |
| C[C@H]1NC(=O)[C@@H]2C[C@H]2CCCCCn2c(-c3nc4cc(C(=O)N[C@H]5CNCC[C@@H]5F)c(F)cc4n3CCOC(F)(F)F)cc3ccc1nc32 [Example 599, 6-fluoro-~{N}-[(3~{S},4~{S})-4-fluoro-3-piperidyl]-2-[(2~{R}, 5~{R},7~{R})-2-methyl-4-oxo-3,13,19-triazatetracyclo[11.5.2.0^ {5,7}.0^{16,20}]icosa-1(19),14,16(20),17-tetraen-14-yl]-1-[2-(trifluoromethoxy)ethyl]benzimidazole-5-carboxamide] | 67 nM |
| C[C@H]1NC(=O)[C@@H]2C[C@H]2CCCCCn2c(-c3nc4cc(C(=O)N[C@H]5CNCC[C@@H]5F)c(F)cc4n3CCOC3CC3)cc3ccc1nc32 [Example 600, 1-[2-(cyclopropoxy)ethyl]-6-fluoro-~{N}-[(3~{S},4~ {S})-4-fluoro-3-piperidyl]-2-[(2~{R},5~{R},7~{R})-2-methyl-4-oxo-3,13,19-triazatetracyclo[11.5.2.0^ {5,7}.0^{16,20}]icosa-1(19),14,16(20),17-tetraen-14-yl]benzimidazole-5-carboxamide] | 46 nM |
| C[C@H]1NC(=O)[C@@H]2C[C@H]2CCCCCn2c(-c3nc4cc(C(=O)N[C@H]5CNCC[C@@H]5F)c(F)cc4n3CCO)cc3ccc1nc32 [Example 601, 6-fluoro-~{N}-[(3~{S},4~ {S})-4-fluoro-3-piperidyl]-1-(2-hydroxyethyl)-2-[(2~{R},5~{R},7~{R})-2-methyl-4-oxo-3,13,19-triazatetracyclo[11.5.2.0^ {5,7}.0^{16,20}]icosa-1(19),14,16(20),17-tetraen-14-yl]benzimidazole-5-carboxamide] | 45 nM |
| C[C@H]1NC(=O)C(C)(C)CCCCCCn2c(-c3nc4cc(C(=O)N[C@H]5CNCC[C@@H]5F)c(F)cc4n3C3C[C@@H]3F)cc3ccc1nc32 (stereo partly drawn) [Example 602, (1~{R})-6-fluoro-1-[(2~{S})-2-fluorocyclopropyl]-~{N}-[(3~{S},4~{S})-4-fluoro-3-piperidyl]-2-[(11~{R})-8,8,11-trimethyl-9-oxo-1,10,19-triazatricyclo [10.5.2.0^{15,18}]nonadeca-12,14,16,18-tetraen-17-yl]benzimidazole-5-carboxamide] | 97 nM |
| C[C@H]1NC(=O)C2(CCCCCCn3c(-c4nc5cc(C(=O)N[C@H]6CNCC[C@@H]6F)c(F)cc5n4C4CC4)cc4ccc1nc43)COC2 [Example 603, 1-cyclopropyl-6-fluoro-~ {N}-[(3~{S},4~{S})-4-fluoro-3-piperidyl]-2-[(11~{R})-11-methyl-9-oxo-spiro[1,10,19-triazatricyclo [10.5.2.0^{15,18}]nonadeca-12,14,16,18-tetraene-8,3′-oxetane]-17-yl] benzimidazole-5-carboxamide] | 44 nM |
| COc1cc(C(=O)N2C[C@H]3CC[C@@H]2[C@@H]3N)cc2nc(-c3cc4ccc5nc4n3CCCCCc3nccnc3C(=O)N[C@@H]5C)n(C)c12 [Example 604, (2~{R})-17-[5-[(1~{R},4~ {R},7~{R})-7-amino-2-azabicyclo[2.2.1]heptane-2-carbonyl]-7-methoxy-1-methyl-benzimidazol-2-yl]-2-methyl-3,6,9,16,22-pentazatetracyclo[14.5.2.0^ {5,10}.0^{19,23}]tricosa-1(21),5(10),6,8,17,19,22-heptaen-4-one] | 86 nM |
| COc1cc(C(=O)N2CC[C@@H](OC)[C@@H](N)C2)cc2nc(-c3cc4ccc5nc4n3CCCCCCc3nccnc3C(=O)N[C@@H]5C)n(C)c12 [Example 606, (2~{R})-18-[5-[(3~{S},4~ {R})-3-amino-4-methoxy-piperidine-1-carbonyl]-7-methoxy-1-methyl-benzimidazol-2-yl]-2-methyl-3,6,9,17,23-pentazatetracyclo[15.5.2.0^ {5,10}.0^{20,24}]tetracosa-1(23),5(10),6,8,18,20(24), 21-heptaen-4-one] | 129 nM |
| COC1CC1n1c(-c2cc3ccc4nc3n2CCCCC[C@@H]2C[C@H]2C(=O)N[C@@H]4C)nc2cc(C(=O)N[C@H]3CNCC[C@@H]3F)c(F)cc21 (stereo partly drawn) [Example 607, 6-fluoro-~{N}-[(3~{S),4~ {S})-4-fluoro-3-piperidyl]-1-(2-methoxycyclopropyl)-2-[(2~{R},5~{R},7~{R})-2-methyl-4-oxo-3,13,19-triazatetracyclo[11.5.2.0^ {5,7}.0^{16,20}]icosa-1(18),14,16,19-tetraen-14-yl]benzimidazole-5-carboxamide] | 51 nM |
